In assay [1] the test system is P388 murine leukemia cell line. The experiment in a line: Antiproliferative MTT assay, P388 cells, 48-h exposure. In kind it is cell-based. The following applies: Mus musculus, read-out: P388 (IC50 μg/ml). As to the method:
(§1) Compounds I and II was analyzed as to their effect on the proliferation of PANC-1 human pancreatic and P388 murine leukemia cell lines. P388 cells were obtained from Dr. R. Camalier, National Cancer Institute, Bethesda, Md., and PANC-1 cells were obtained from American Type Culture Collection, Rockville, Md. All cell lines were maintained in tissue culture medium (TCM; Roswell Park Memorial Institute RPMI 1640 supplemented with 100 U/mL penicillin, […] streptomycin, […] 1-glutamine, 18 mM HEPES, 0.05 mg/mL gentamicin (Life Technologies, Gaithersburg, Md.) and 10% fetal bovine serum) and cultured in plastic tissue culture flasks at 37° C. in humidified air containing 5% CO2. Stock cultures of P388 cells were subcultured 1:20 in fresh TCM every 2 to 3 days. Stock cultures of […] cells were subcultured 1:10 every 3 to 4 days. To assess the antiproliferative effects of agents against the cells, […] cultures (96-well tissue culture plates, Nunc, Denmark) were established at 1×10^5 cells/mL in TCM or TCM containing the test agent at 0.03-5.0 μg/mL. After 48-h exposures, P388 cells were enumerated using 3-[4,5-dimethylthiazol-2-yl]-2,5-diphenyltetrazolium bromide (MTT) as described in the literature (M. C. Alley, et al., Cancer Res. 48:589, 1988). […] The results were expressed as percent inhibition compared to the negative (no drug) control. […]
On the technique in general: Tetrazolium dyes change colour on reduction, which living cells bring about.

Assay [2] concerns PANC-1 human pancreatic cell line. Briefly: Antiproliferative MTT assay, PANC-1 cells, 72 hours exposure. In kind it is cell-based. As to the method:
as §1

With `COC(=O)c1ccc2c(C)cc3occc3cc1-2` [11-carbomethoxylinderazulene (I), 11-carbomethoxylinderazulene], the IC50 in assay [1] came out at 2.7 µg/mL; in assay [2] (Homo sapiens, read-out: PANC-1 (IC50 μg/ml)), 18.7 µg/mL.

With `Cc1cc2occc2cc2c(C=O)ccc1-2` [11-formyllinderazulene (II), 11-formyllinderazulene], the IC50 in assay [1] is 15.6 µg/mL. Also, the “PANC-1 (IC50 μg/ml)” value in assay [2] is “No inhibition of cell”.

The record behind these values is patent publication US6852754B1, “Biologically active linderazulene terpenes” (Harbor Branch Oceanographic Institution, Inc., priority 2004, dated 2005).
